Like-named read-outs stand apart in the source and are kept apart here.
How the values were obtained:
HIV protease = target: T1, HIV protease (Human immunodeficiency virus type 1 group M subtype B, UniProt P04585); experiment: Recombinant HIV Protease HPLC Assay; type: biochemical
T1 construct: HIV protease was expressed in E. coli; made in house; host or cells: E. coli (plasmid pBRT1 prt+)
Source text: The procedure is based on the capacity of the test compound to inhibit enzymatic cleavage by HIV protease of a decapeptide (the substrate) having an amino acid sequence which includes a known HIV protease cleavage site of a HIV polyprotein; see H. G. Krausslich et al., Proc. Natl. Acad. Sci. USA, 86, 807 (1989). Details of this assay together with the results obtained for exemplified compounds of formula 1 are described in the examples hereinafter.
Recombinant HIV Protease HPLC Assay:
Enzyme: HIV protease was expressed in E. coli {construct pBRT1 prt^+, see W. G. Farmerie et al., Science, 236, 305 (1987)}, according to the following protocol:
E. coli cells containing the pBRT1 prt^+ plasmid were used to inoculate a seed culture media composed of Luria-Bertani Broth containing 100 μg/mL of ampicillin. Flasks were incubated at 37° under agitation for 17 h. Production flasks containing sterile M9 broth, supplemented with 100 μg/mL of ampicillin, were inoculated at a level of 1% (v/v) using the seed culture described above. Total volume in each production flask was 500 mL in a 2 L Erlenmeyer flask. Flasks were incubated at 37° under agitation until a cell concentration corresponding to an optical density ([…]) of 0.6 was reached (no dilution). This time span was routinely 3-4 h. Flasks were then supplemented with 5 mM isopropylthiogalactoside (IPTG, Research Organics, Cleveland, Ohio, USA) and incubation was continued until the cell concentration reached an optical density of 0.2 at 16-fold dilution. Flasks were then supplemented with 1 mM phenylmethylsulfonyl fluoride (PMSF) and rapidly chilled to 4°. The bacterial cells were recovered by centrifugation at 4°. The wet pellet was stored at -70°.
All steps below were performed at 4° unless otherwise indicated. Thawed cells were mixed with buffer A {50 mM tris(hydroxymethyl)[…] HCl (Tris-HCl, pH 7.4); 0.6 mM ethylenediaminetetraacetic acid (EDTA); 0.375M NaCl, 0.2% Nonidet P-40® (BDH Chemicals Ltd., Poole, UK); 1 mM PMSF}, at a ratio of one part cells to nine parts buffer A. Diatomaceous earth (Celite 545®, John Manville, Lompoc, Calif. USA) was added at a ratio of two parts to one part of wet cell weight. The resulting slurry was homogenized at high speed (ca. 20,000 rpm) on a Waring® industrial blender for 8×15 sec. pulses. Cell debris/Celite® was collected by centrifugation and the resulting pellet was extracted with 4.5 parts of buffer A to one part wet solids using the homogenization procedure described above. Supernatants from both homogenization steps were combined and soluble protein was precipitated by the addition of solid (NH4)2 SO4 to yield a final concentration of 75% saturation. This mixture was agitated for 60 min and the precipitate was recovered by centrifugation. The resulting pellet was suspended in buffer B {50 mM Tris-HCl, pH 8; 30 mM NaCl; 1 mM DL-dithiothreitol (DTT); 1 mM EDTA; 1 mM PMSF; 10% glycerol}, and dialyzed for 18 h against the same buffer.
An aliquot of the dialyzed extract containing 150 mg of the protein was loaded onto a Sephadex A25® anion exchange column (Pharmacia, Uppsala, Sweden) with bed dimensions of 70 cm length and 2.5 cm diameter. The sample was eluted isocratically with buffer B at a linear flow rate of 10 cm/h. Fractions containing HIV protease activity (see below for assay description) were combined, and soluble protein was precipitated by the addition of saturated aqueous (NH4)2 SO4 to yield a total (NH4)2 SO4 concentration of 85% saturation. Precipitated protein was removed by centrifugation and the resulting pellet was dissolved in buffer C {50 mM 2-(4-morpholino)ethanesulfonic acid (MES), pH 5.5; 150 mM NaCl; 1 mM DTT; 1 mM EDTA; 10% glycerol}. This preparation was dialyzed for 18 h against buffer C, and then frozen at -70°. All crude extracts were purified by chromatography in aliquots containing 150 mg of protein in the same manner as described above. […]

[1] = test system: HIV (H9/HTLV-IIIB) in C8166 cells; experiment: plaque assay: inhibition of syncytia formation in HIV-infected C8166 cells; type: cell-based; conditions: Human immunodeficiency virus 1, IIIB, 72 h, 50% inhibition of syncytia formation
Source text: Typical of such procedures are those described by S. Harada and N. Yamamoto, Jpn. J. Cancer Res. (Gann), 76, 432 (1985), and S. Harada et al., Science, 229, 563 (1985). An assay based on the latter procedures is described in the examples hereinafter.
The following protocol, used for screening antiviral effects of the compounds of formula 1, is adapted from a plaque assay utilizing HTLV-I transformed cells, previously reported by Harada et al., supra. HTLV-I transformed cells are used because of the rapidity with which HIV will replicate in the cells.
1. The test compound is dissolved in dimethylsulfoxide to a concentration of 5 mg/mL. The resultant solution can be stored at 4° until use.
2. The resultant solution is diluted in RPMI 1640 (Gibco Laboratories, St. Lawrence, Mass., USA) to four times (4×) the final concentration which is to be tested. Once diluted in RPMI 1640, the solution is used in the cell culture assay within 4 h.
3. The 4× solution (50 μL) is added to triplicate wells of a 96 well flat bottomed microtiter plate. RPMI (50 μL) also is added to control wells.
4. C8166 cells (5×10^4) in 50 μL of HEPES-buffered RPMI 1640 (pH=7.2), 10% heat inactivated fetal calf serum (FCS), […] gentamicin (complete media) are added to all wells.
5. Fifty times TCID50 of H9/HTLV-IIIB stock (stored in liquid nitrogen as cell culture supernatant in 50% FCS) in 100 μL of complete media is added to all wells. Infectious titer of virus stocks are as previously determined by end point dilution on C8166 cells. Titer of stocks are stable for 6-12 months when stored at -193°.
6. Microtiter plates are then placed on level shelves of a 37°, 5% CO2 humidified incubator for 72 h.
7. Plates are then removed and centers of syncytia are counted in each well by low power phase contrast light microscopy. […] Control wells should have between 25 and 75 centers of syncytia per well.
8. Percent inhibition of syncytia formation is calculated by the formula: [formula]
The concentration of the test compound which causes a 50% inhibition of syncytia formation, i.e. the EC50, is determined by using the technique of serial dilution of the working solution at step 3 and by using non-linear regression analysis (SAS® program) to graphically plot the observed percent inhibition of syncytia formation against the various concentrations of the test compound.

IC50 (HIV protease; Table IV, 37°, 30 min, pH 5.5) | EC50 ([1]; Table IV) | IC50 (HIV protease; Table V, 37°, 30 min, pH 5.5) | EC50 ([1]; Table V) | SMILES | also measured
30 nM | 1400 nM |  |  | CC(C)(C)NC(=O)[C@@H]1C[C@H](S(=O)(=O)c2ccccc2)CCN1C[C@@H](O)[C@H](Cc1ccccc1)NC(=O)OCc1ccccc1 [Table IV, entry 4, N-tert-butyl-1-{3(S)-(benzyloxycarbonylamino)-2(R)-hydroxy-4-phenylbutyl}-4(R)-(phenylsulfonyl)piperidine-2(S)-carboxamide] | 
 | 290 nM |  |  | Cc1cc(C)nc(S[C@@H]2CCN(C[C@@H](O)[C@H](Cc3ccccc3)NC(=O)OCc3ccccc3)[C@H](C(=O)NC(C)(C)C)C2)n1 [Table IV, entry 31, N-tert-butyl-1-{3(S)-(benzyloxycarbonylamino)-2(R)-hydroxy-4-phenylbutyl}-4(R)-(4,6-dimethyl-2-pyrimidinylthio)-piperidine-2(S)-carboxamide] | IC50 (HIV protease): 12 nM
 |  |  |  | CC(C)(C)NC(=O)[C@@H]1C[C@H](Sc2ccncc2)CCN1C[C@@H](O)[C@H](Cc1ccccc1)NC(=O)c1c(F)cccc1F [Table VII, entry 8, N-tert-butyl-1-{3(S)-{{(2,6-difluorophenyl)carbonyl}amino}-2(R)-hydroxy-4-phenylbutyl}-4(R)-(4-pyridinylthio)piperidine-2(S)-carboxamide] | IC50 (HIV protease; Table VII, 37°, 30 min, pH 5.5): 14 nM; EC50 ([1]; Table VII): 340 nM
6.3 nM | 150 nM |  |  | CC(C)(C)NC(=O)[C@@H]1C[C@H](c2ccccc2)CCN1C[C@@H](O)[C@H](Cc1ccccc1)NC(=O)[C@H](CC(N)=O)NC(=O)OCc1ccccc1 [Table IV, entry 12] | 
 |  | 4 nM | 20 nM | Cc1cc(C)nc(O[C@@H]2CCN(C[C@@H](O)[C@H](Cc3ccccc3)NC(=O)[C@@H](NC(=O)c3ccc4ccccc4n3)C(C)C)[C@H](C(=O)NC(C)(C)C)C2)n1 [Table V, entry 11, N-tert-butyl-1-{2(S)(R)-hydroxy-4-phenyl-3(S)-{{N-(2-quinolylinylcarbonyl)valyl}amino}butyl}-4(R)-{(4,6-dimethyl-2-pyrimidinyl)oxy}piperidine-2-carboxamide] | 
19 nM | 822 nM |  |  | CC(C)(C)NC(=O)[C@@H]1C[C@H](Sc2ncccn2)CCN1C[C@@H](O)[C@H](Cc1ccccc1)NC(=O)OCc1ccccc1 [Table IV, entry 30, N-tert-butyl-1-{3(S)-(benzyloxycarbonylamino)-2(R)-hydroxy-4-phenylbutyl}-4(R)-(2-pyrimidinylthio)piperidine-2(S)-carboxamide] | 
4.7 nM | 450 nM |  |  | CC(C)(C)NC(=O)[C@@H]1C[C@H](S(=O)(=O)c2ccccc2)CCN1C[C@@H](O)[C@H](Cc1ccccc1)NC(=O)[C@H](CC(N)=O)NC(=O)c1ccc2ccccc2n1 [Table IV, entry 22, N-tert-butyl-1-{2(R)-hydroxy-4-phenyl-3(S)-{{N-(2-quinolinylcarbonyl)asparaginyl}amino}butyl}-4(R)-(phenylsulfonyl)piperidine-2(S)-carboxamide] | 
 |  | 2.8 nM | 4 nM | CC(C)[C@H](NC(=O)c1ccc2ccccc2n1)C(=O)N[C@@H](Cc1ccccc1)[C@H](O)CN1CC[C@@H](SCc2ccncc2)C[C@H]1C(=O)NC(C)(C)C [Table V, entry 2(S), N-tert-butyl-1-{2(R)-hydroxy-4-phenyl-3(S)-{{N-(2-quinolylinylcarbonyl)valyl}amino}butyl}-4(R)-{(4-pyridinylmethyl)thio}piperidine-2-carboxamide] | 
 |  | 3.6 nM | 7 nM | CC(C)[C@H](NC(=O)c1ccc2ccccc2n1)C(=O)N[C@@H](Cc1ccccc1)[C@H](O)CN1CC[C@@H](Sc2ncccn2)C[C@H]1C(=O)NC(C)(C)C [Table V, entry 1, N-tert-butyl-1-{2(R)-hydroxy-4-phenyl-3(S)-{{N-(2-quinolylinylcarbonyl)valyl}amino}butyl}-4(R)-(2-pyrimidinylthio)piperidine-2-carboxamide] | 
 |  | 1.8 nM | 67 nM | CC(C)[C@H](NC(=O)c1ccc2ccccc2n1)C(=O)N[C@@H](Cc1ccccc1)[C@H](O)CN1CC[C@@H](S(=O)(=O)Cc2cccnc2)C[C@H]1C(=O)NC(C)(C)C [Table V, entry 18, N-tert-butyl-1-{2(S)(R)-hydroxy-4-phenyl-3(S)-{{N-(2-quinolylinylcarbonyl)valyl}amino}butyl}-4(R)-{(3-pyridinylmethyl)sulfonyl}piperidine-2-carboxamide] | 
4.3 nM | 14 nM |  |  | CC(C)[C@H](NC(=O)N(C)Cc1ccccn1)C(=O)N[C@@H](Cc1ccccc1)[C@H](O)CN1CC[C@@H](Sc2ccccc2)C[C@H]1C(=O)NC(C)(C)C [Table IV, entry 38, N-tert-butyl-1-{2(R)-hydroxy-3(S)-{N-{{N-methyl-N-(2-pyridinylmethyl)amino}carbonyl}valyl}-4-phenylbutyl}-4(R)-(phenylthio)piperidine-2(S)-carboxamide] | 
1.8 nM | 10 nM |  |  | CC(C)(C)NC(=O)[C@@H]1C[C@H](Sc2ccccc2)CCN1C[C@@H](O)[C@H](Cc1ccccc1)NC(=O)[C@H](CC(N)=O)NC(=O)c1ccc2ccccc2n1 [Table IV, entry 23, N-tert-butyl-1-{2(R)-hydroxy-4-phenyl-3(S)-{{N-(2-quinolinylcarbonyl)asparaginyl}amino}butyl}-4(R)-(phenylthio)piperidine-2(S)-carboxamide] | 
